In the supplement of paper PMC10307832:

How the values were obtained:
Experiment in all cases: relative viability (nuclei count vs DMSO), 5 days (fraction); higher = more cells survive
[1] = compound: CC(C)C[C@H](NC(=O)[C@H](CCc1ccccc1)NC(=O)CN1CCOCC1)C(=O)N[C@@H](Cc1ccccc1)C(=O)N[C@@H](CC(C)C)C(=O)[C@@]1(C)CO1 [Carfilzomib] + O=C(CCCCCCC(=O)Nc1ccccc1)NO [Vorinostat] (partner 1 µM)
Summary of the method: (§1)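 Lung cancer cell lines were seeded in 1536-well plates and dosed by pin tool the next day, with either a single drug or a fixed anchor-drug dose combined with five library-drug doses (not always all listed) spaced in √10 steps. Five days later, one step fixed the cells and stained their nuclei (final 0.05% Triton X-100, 1% formaldehyde, 1 ug/ml Hoechst), and nuclei were counted on 4× images. Relative viability is the nuclei count in treated wells divided by the count in vehicle wells, and each value is the median of duplicate plates.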

[2] = compound: O=C(c1cc(Cc2n[nH]c(=O)c3ccccc23)ccc1F)N1CCN(C(=O)C2CC2)CC1 [Olaparib] + C[C@@H](Oc1cc(-c2cnn(C3CCNCC3)c2)cnc1N)c1c(Cl)ccc(F)c1Cl [Crizotinib] (partner 1 µM)
Summary of the method: as §1

[3] = compound: C[C@@H](Oc1cc(-c2cnn(C3CCNCC3)c2)cnc1N)c1c(Cl)ccc(F)c1Cl [Crizotinib] + CS(=O)(=O)CCNCc1ccc(-c2ccc3ncnc(Nc4ccc(OCc5cccc(F)c5)c(Cl)c4)c3c2)o1 [Lapatinib] (partner 2 µM)
Summary of the method: as §1

[4] = compound: C[C@@H](Oc1cc(-c2cnn(C3CCNCC3)c2)cnc1N)c1c(Cl)ccc(F)c1Cl [Crizotinib] + NC(=O)Nc1cc(-c2cccc(F)c2)sc1C(=O)N[C@H]1CCCNC1 [AZD7762] (partner 0.2 µM)
Summary of the method: as §1

Cell Line: NCI-H2170
- relative viability ([1]; first compound 0.001 µM): 0.751
- relative viability ([1]; first compound 0.003162 µM): 0.86
- relative viability ([1]; first compound 0.01 µM): 0.916
- relative viability ([1]; first compound 0.03162 µM): 0.404
- relative viability ([1]; first compound 0.1 µM): 0.152
- relative viability ([2]; first compound 0.08 µM): 1.23
- relative viability ([2]; first compound 0.253 µM): 1.15
- relative viability ([2]; first compound 2.53 µM): 1.4
- relative viability ([2]; first compound 8 µM): 1.11
- relative viability ([3]; first compound 0.01 µM): 0.274
- relative viability ([3]; first compound 0.03162 µM): 0.283
- relative viability ([3]; first compound 0.1 µM): 0.261
- relative viability ([3]; first compound 0.3162 µM): 0.243
- relative viability ([3]; first compound 1 µM): 0.241
- relative viability ([4]; first compound 0.01 µM): 0.761
- relative viability ([4]; first compound 0.03162 µM): 0.894
- relative viability ([4]; first compound 0.1 µM): 0.835
- relative viability ([4]; first compound 0.3162 µM): 0.852
- relative viability ([4]; first compound 1 µM): 0.858

Cell Line: NCI-H2347
- relative viability ([1]; first compound 0.001 µM): 0.712
- relative viability ([1]; first compound 0.003162 µM): 0.53
- relative viability ([1]; first compound 0.01 µM): 0.432
- relative viability ([1]; first compound 0.03162 µM): 0.352
- relative viability ([1]; first compound 0.1 µM): 0.303
- relative viability ([2]; first compound 0.08 µM): 0.672
- relative viability ([2]; first compound 0.253 µM): 0.657
- relative viability ([2]; first compound 2.53 µM): 0.705
- relative viability ([2]; first compound 8 µM): 0.622
- relative viability ([3]; first compound 0.01 µM): 0.982
- relative viability ([3]; first compound 0.03162 µM): 0.902
- relative viability ([3]; first compound 0.1 µM): 0.906
- relative viability ([3]; first compound 0.3162 µM): 0.888
- relative viability ([3]; first compound 1 µM): 0.933
- relative viability ([4]; first compound 0.01 µM): 0.773
- relative viability ([4]; first compound 0.03162 µM): 0.663
- relative viability ([4]; first compound 0.1 µM): 0.772
- relative viability ([4]; first compound 0.3162 µM): 0.582
- relative viability ([4]; first compound 1 µM): 0.884

Cell Line: NCI-H2405
- relative viability ([1]; first compound 0.001 µM): 0.998
- relative viability ([1]; first compound 0.003162 µM): 1.17
- relative viability ([1]; first compound 0.01 µM): 1.06
- relative viability ([1]; first compound 0.03162 µM): 0.376
- relative viability ([1]; first compound 0.1 µM): 0.148
- relative viability ([2]; first compound 0.08 µM): 0.948
- relative viability ([2]; first compound 0.253 µM): 0.83
- relative viability ([2]; first compound 2.53 µM): 0.769
- relative viability ([2]; first compound 8 µM): 0.809
- relative viability ([3]; first compound 0.01 µM): 1.05
- relative viability ([3]; first compound 0.03162 µM): 0.975
- relative viability ([3]; first compound 0.1 µM): 0.999
- relative viability ([3]; first compound 0.3162 µM): 0.952
- relative viability ([4]; first compound 0.01 µM): 0.632
- relative viability ([4]; first compound 0.03162 µM): 0.695
- relative viability ([4]; first compound 0.1 µM): 0.684
- relative viability ([4]; first compound 0.3162 µM): 0.763
- relative viability ([4]; first compound 1 µM): 0.755

Cell Line: NCI-H3122
- relative viability ([1]; first compound 0.001 µM): 0.841
- relative viability ([1]; first compound 0.003162 µM): 0.819
- relative viability ([1]; first compound 0.01 µM): 1.06
- relative viability ([1]; first compound 0.03162 µM): 0.747
- relative viability ([1]; first compound 0.1 µM): 0.329
- relative viability ([2]; first compound 0.08 µM): 0.266
- relative viability ([2]; first compound 0.253 µM): 0.292
- relative viability ([2]; first compound 2.53 µM): 0.266
- relative viability ([2]; first compound 8 µM): 0.28
- relative viability ([3]; first compound 0.01 µM): 0.985
- relative viability ([3]; first compound 0.03162 µM): 0.891
- relative viability ([3]; first compound 0.1 µM): 0.951
- relative viability ([3]; first compound 0.3162 µM): 0.962
- relative viability ([3]; first compound 1 µM): 0.763
- relative viability ([4]; first compound 0.01 µM): 1.01
- relative viability ([4]; first compound 0.03162 µM): 1.05
- relative viability ([4]; first compound 0.1 µM): 0.93
- relative viability ([4]; first compound 0.3162 µM): 0.962
- relative viability ([4]; first compound 1 µM): 0.921

Cell Line: PC-3 [JPC-3]
- relative viability ([1]; first compound 0.001 µM): 0.784
- relative viability ([1]; first compound 0.003162 µM): 0.808
- relative viability ([1]; first compound 0.01 µM): 1.1
- relative viability ([1]; first compound 0.03162 µM): 0.475
- relative viability ([1]; first compound 0.1 µM): 0.229
- relative viability ([2]; first compound 0.08 µM): 1
- relative viability ([2]; first compound 0.253 µM): 0.902
- relative viability ([2]; first compound 2.53 µM): 1.01
- relative viability ([2]; first compound 8 µM): 0.928
- relative viability ([3]; first compound 0.01 µM): 0.408
- relative viability ([3]; first compound 0.03162 µM): 0.448
- relative viability ([3]; first compound 0.1 µM): 0.446
- relative viability ([3]; first compound 0.3162 µM): 0.422
- relative viability ([3]; first compound 1 µM): 0.459
- relative viability ([4]; first compound 0.01 µM): 0.687
- relative viability ([4]; first compound 0.1 µM): 0.907
- relative viability ([4]; first compound 1 µM): 0.772

Cell Line: PC-14
- relative viability ([1]; first compound 0.001 µM): 0.71
- relative viability ([1]; first compound 0.003162 µM): 0.754
- relative viability ([1]; first compound 0.01 µM): 0.228
- relative viability ([1]; first compound 0.03162 µM): 0.0369
- relative viability ([1]; first compound 0.1 µM): 0.0418
- relative viability ([2]; first compound 0.08 µM): 0.883
- relative viability ([2]; first compound 0.253 µM): 0.824
- relative viability ([2]; first compound 2.53 µM): 0.849
- relative viability ([2]; first compound 8 µM): 0.657
- relative viability ([3]; first compound 0.01 µM): 0.297
- relative viability ([3]; first compound 0.03162 µM): 0.339
- relative viability ([3]; first compound 0.1 µM): 0.312
- relative viability ([3]; first compound 0.3162 µM): 0.304
- relative viability ([3]; first compound 1 µM): 0.304
- relative viability ([4]; first compound 0.01 µM): 0.342
- relative viability ([4]; first compound 0.03162 µM): 0.392
- relative viability ([4]; first compound 0.1 µM): 0.401
- relative viability ([4]; first compound 0.3162 µM): 0.355
- relative viability ([4]; first compound 1 µM): 0.382

Cell Line: RERF-LC-KJ
- relative viability ([1]; first compound 0.001 µM): 0.7
- relative viability ([1]; first compound 0.003162 µM): 0.683
- relative viability ([1]; first compound 0.01 µM): 0.676
- relative viability ([1]; first compound 0.03162 µM): 0.392
- relative viability ([1]; first compound 0.1 µM): 0.242
- relative viability ([2]; first compound 0.08 µM): 0.811
- relative viability ([2]; first compound 0.253 µM): 0.775
- relative viability ([2]; first compound 2.53 µM): 0.911
- relative viability ([2]; first compound 8 µM): 0.755
- relative viability ([3]; first compound 0.01 µM): 0.801
- relative viability ([3]; first compound 0.03162 µM): 0.881
- relative viability ([3]; first compound 0.1 µM): 0.853
- relative viability ([3]; first compound 1 µM): 0.838
- relative viability ([4]; first compound 0.01 µM): 1.02
- relative viability ([4]; first compound 0.03162 µM): 0.956
- relative viability ([4]; first compound 0.1 µM): 0.956
- relative viability ([4]; first compound 0.3162 µM): 0.946
- relative viability ([4]; first compound 1 µM): 0.994
